Key:
[1] = Brain and tissue penetration after i.v. administration in wildtype and P-gp/BCRP knockout mice; format: in vivo, FVB mice; settings: 2 mg/kg i.v.
Description: To study whether P-gp and BCRP attenuate buparlisib brain penetration in vivo, we measured the brain and plasma concentration in wildtype (WT), Abcg2^−/−, Abcb1a/b^−/− and Abcb1a/b; Abcg2^−/− mice 1 hour after i.v. administration of 2 mg/kg buparlisib.
Figure 2 The impact of P-gp and BCRP on the brain and tissue penetration of buparlisib. Buparlisib was administered intravenously to wildtype, Abcg2^−/−, Abcb1a/b^−/− and Abcb1a/b;Abcg2^−/− mice at a dose of 2 mg/kg. One hour after injection, blood and tissues were collected for LC-MS/MS analysis. […] All data are represented as mean ± SD (n = 4).
The pharmacokinetics of buparlisib were analysed in WT, Abcg2^−/−, Abcb1a/b^−/− and Abcb1a/b; Abcg2^−/− FVB mice. All knockout mice strains have been developed within our institute[41]–[43]. For i.v. administration, buparlisib was dissolved in DMSO and injected at a dose of 2 mg/kg. For oral administration, buparlisib was formulated in DMSO:Cremophor EL:water (1:1:8 v/v/v) and administered at 1, 2 or 5 mg/kg as indicated. Tail vein bleeding was used to collect blood at intermediate time points, whereas at the last time point blood was drawn by cardiac puncture and various tissue were collected. Plasma was obtained from whole blood by centrifugation (5 min, 5,000 rpm, 4 °C). After weighing, tissues were homogenized using a FastPrep®-24 (MP-Biomedicals, NY) in 1% (w/v) bovine serum albumin in water. Buparlisib was extracted from plasma and tissue homogenate by liquid-liquid extraction with ethyl acetate using AZD8055 as an internal standard.
Buparlisib was measured in samples from in vitro transport assays and in vivo pharmacokinetic studies using an LC-MS/MS system comprised of an UltiMate 3000 LC Systems (Dionex, Sunnyvale, CA) and an API 4000 mass spectrometer (Sciex, Framingham, MA). Samples were run through a Securityguard C18 pre-column (Phenomenex, Utrecht, The Netherlands) prior to separation on a ZORBAX Extend-C18 column (Agilent, Santa Clara, CA). Elution was done using a in a 5 minute gradient from 20% to 95% B (mobile phase A was 0.1% HCOOH in water (v/v) and mobile phase B was methanol). 95% B was maintained for 3 min followed by re-equilibration at 20% B. Multiple reaction monitoring was performed at 411.3/367.2 (buparlisib) and 418.2/138.4 (AZD8055). Analyst® 1.6.2 software (AB Sciex; Foster City, CA) was used for system control and data analysis.
As described in detail before, CETA results were analysed with the General linear model repeated measures procedure of SPSS (v22; SPSS Inc, Chicago, IL)[25]. PK solver was used to determine pharmacokinetic parameters. The standard error of the oral bioavailability was calculated using the formula below: SEF=F(SEAUCp.o./AUCp.o.)^2+(SEAUCi.v./AUCi.v.)^2 Buparlisib concentrations in WT and transporter knockout mice in vivo were compared using one-way analysis of variance followed by post hoc Bonferroni tests. Statistical differences between the buparlisib PK parameters in male and female mice were calculated as Bonferroni corrected p-values using multiple Student’s t-tests. Differences were considered statistically significant when p < 0.05.

human P-gp (ABCB1/MDR1) = biological target: T1, human P-gp (ABCB1/MDR1) (Homo sapiens, UniProt P08183); test: Concentration equilibrium transport assay (CETA), LLC-MDR1; format: in vitro ADME; settings: 100 nM
T1 construct: expressed in transfected cells; host or cells: LLC-PK1 (LLC-MDR1)
T1 sequence (P08183 whole entry): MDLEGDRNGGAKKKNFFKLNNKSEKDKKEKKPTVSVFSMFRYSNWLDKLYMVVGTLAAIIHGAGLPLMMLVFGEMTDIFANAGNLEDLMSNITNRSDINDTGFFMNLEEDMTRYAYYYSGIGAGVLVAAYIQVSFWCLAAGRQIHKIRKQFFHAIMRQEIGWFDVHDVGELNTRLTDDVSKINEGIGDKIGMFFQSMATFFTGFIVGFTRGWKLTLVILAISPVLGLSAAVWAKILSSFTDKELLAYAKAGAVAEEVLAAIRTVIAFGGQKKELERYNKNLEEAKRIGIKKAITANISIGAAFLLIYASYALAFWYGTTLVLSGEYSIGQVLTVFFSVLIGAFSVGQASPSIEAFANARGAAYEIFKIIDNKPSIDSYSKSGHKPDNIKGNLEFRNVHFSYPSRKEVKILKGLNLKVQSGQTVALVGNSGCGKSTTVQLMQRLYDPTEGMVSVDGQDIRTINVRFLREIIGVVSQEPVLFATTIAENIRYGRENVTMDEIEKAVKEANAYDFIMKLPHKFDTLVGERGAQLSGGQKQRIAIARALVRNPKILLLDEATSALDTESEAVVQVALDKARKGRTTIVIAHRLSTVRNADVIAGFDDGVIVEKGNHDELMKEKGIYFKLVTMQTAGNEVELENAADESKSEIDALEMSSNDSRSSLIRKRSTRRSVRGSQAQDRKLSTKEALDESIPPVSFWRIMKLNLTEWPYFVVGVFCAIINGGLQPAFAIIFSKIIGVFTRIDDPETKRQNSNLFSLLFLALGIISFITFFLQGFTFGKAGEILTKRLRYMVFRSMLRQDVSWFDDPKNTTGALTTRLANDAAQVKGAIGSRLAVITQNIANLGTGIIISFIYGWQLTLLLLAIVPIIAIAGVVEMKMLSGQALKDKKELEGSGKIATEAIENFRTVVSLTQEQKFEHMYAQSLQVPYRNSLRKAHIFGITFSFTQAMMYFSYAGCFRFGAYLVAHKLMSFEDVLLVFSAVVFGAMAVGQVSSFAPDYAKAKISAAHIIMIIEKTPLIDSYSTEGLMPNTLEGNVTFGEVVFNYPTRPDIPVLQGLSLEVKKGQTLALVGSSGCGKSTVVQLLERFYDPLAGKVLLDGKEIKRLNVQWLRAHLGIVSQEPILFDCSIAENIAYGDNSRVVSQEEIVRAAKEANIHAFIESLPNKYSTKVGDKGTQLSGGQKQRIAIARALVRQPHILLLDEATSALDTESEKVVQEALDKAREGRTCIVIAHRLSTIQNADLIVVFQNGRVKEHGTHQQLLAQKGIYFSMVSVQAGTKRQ
Source text: Figure 1 Analysis of buparlisib substrate affinity for ABC transporters using in vitro transport assays. (A) The chemical structure of buparlisib. (B) A conventional transport assay (CTA) using LLC-PK1 cells in presence of zosuquidar to block endogenous (porcine) P-gp activity. […] (C) Concentration equilibrium transport assays (CETAs) using MDCK or LLC cells that overexpress murine BCRP, (Bcrp1), human BCRP, murine P-gp (Mdr1a) or human P-gp (MDR1). […] The P-gp inhibitor zosuquidar was used in all MDCK cell lines to inhibit endogenous P-gp activity and in LLC cell lines to validate possible P-gp-mediated translocations. […]
Conventional bidirectional transport assays (CTAs) and concentration equilibrium transport assays (CETAs) were performed as described previously. […] Transwell leakiness was determined as Carboxyl-[^14C]-inulin translocation exceeding 1.5% per hour and these wells were excluded from the analysis. […]
As described in detail before, CETA results were analysed with the General linear model repeated measures procedure of SPSS (v22; SPSS Inc, Chicago, IL)[25]. […] The standard error of the oral bioavailability was calculated using the formula below: SEF=F(SEAUCp.o./AUCp.o.)^2+(SEAUCi.v./AUCi.v.)^2 Buparlisib concentrations in WT and transporter knockout mice in vivo were compared using one-way analysis of variance followed by post hoc Bonferroni tests. […]

PI3K = test: Intracranial target inhibition, immunoblotting of brain lysates; format: in vivo, FVB mice
Description: Figure 3 Buparlisib has excellent intracranial target engagement and oral bioavailability. (A) Buparlisib was orally administered to wildtype mice at a dose of 1 mg/kg, 2 mg/kg or 5 mg/kg. One hour after injection, blood and tissues were collected for LC-MS/MS analysis. Buparlisib plasma and brain levels increase dose-dependently, yielding similar and excellent brain-plasma ratios at all dose levels that were tested. (B) Immunoblotting of brain tissue lysates from (A). […] (C) Plasma-time curves of male and female wildtype mice following intravenous (2 mg/kg) or oral (5 mg/kg) administration. […] The oral bioavailability of buparlisib is excellent, since oral and intravenous administration yielded similar dose-adjusted AUCs (see Table 1). All data are represented as mean ± SD (n = 4).
Next, we studied the intracranial pharmacodynamics of buparlisib in WT FVB mice as measured by target inhibition.
Mouse brains were homogenized in RIPA buffer supplemented with sodium fluoride (2 mM), sodium orthovanadate (1 mM), sodium pyrophosphate (1 mM), β-glycerophosphate (2.5 mM), PMSF (1 mM), DTT (1 mM) and protein inhibitor cocktail (Roche; Basel, Switzerland). The primary antibodies that were used in this study are phospho-Akt^S473 (1:1000; D9E, #4060; Cell Signaling Technology; Danvers, MA), total Akt (1:1000; #9272; Cell Signaling Technology), phospho-Erk1^T202/204/Erk2^T183/Y185 (1:1000; sc-16982; Santa Cruz Biotechnology, Dallas, TX), total Erk1/2 (1:1000; C16, sc-93; Santa Cruz Biotechnology) and β–tubulin (1:1000; T3952; Sigma-Aldrich, St. Louis, MO). Goat-anti-rabbit-HRP (1:2000; DAKO, Santa Clara, CA) was used a secondary antibody.

[2] = humans; cited from earlier work

In the case of `Nc1cc(C(F)(F)F)c(-c2cc(N3CCOCC3)nc(N3CCOCC3)n2)cn1` [buparlisib], the “brain concentration compared with liver, kidney and spleen concentrations” value ([1]; 1 hour) is reported as “slightly higher”, the “kidney level compared with concurrent plasma level” value ([1]; 1 hour) is reported as “lower” and the “liver level compared with concurrent plasma level” value ([1]; 1 hour) is reported as “equal”. The “spleen level compared with concurrent plasma level” value ([1]; 1 hour) was “lower”, the “differences among mouse strains in plasma and brain concentrations” value ([1]; 1 hour, WT vs transporter knockout mice) was “No differences” and the Kp at 1 h ([1]; FVB, mouse, brain/plasma, intravenous, all strains (WT, Abcg2-/-, Abcb1a/b-/-, Abcb1a/b;Abcg2-/-), read-out: brain-plasma ratio) was 1.5 to 2. For the same compound, the “substrate of human P-gp” value (human P-gp (ABCB1/MDR1)) was “not a substrate”, the “phosphorylation of Akt S473 in the brain” value (PI3K; oral 5 mg/kg, wildtype mice) was “efficiently inhibited” and the “phosphorylation of AKT in brain lysates” value (PI3K; oral 1, 2, 5 mg/kg, WT FVB mice) was “dose-dependently decreased”. For the same compound, the “signalling through ERK in brain lysates” value (PI3K; oral, WT FVB mice) was “without affecting” and the maximum tolerated dose [2] was 100 mg per day.
